Columns and labels:
[1] = preclinical toxicology studies; cited from earlier work
[2] = rodents; preclinical; cited from earlier work
pS6 in tumour biopsies = assay: Paired tumour biopsies: pS6 immunohistochemistry; assay type: in vivo, human
Experimental: (§1) Drug-mediated inhibition of the mTORC1 and mTORC2 signalling was evaluated through assessing modulation of phospho-4EBP1 and phospho-PRAS40 in PBMC, as well as phospho-4EBP1 and phospho-S6 in tumour biopsies. Blood aliquots were collected prior to start dosing and at prespecified time points during the first course of treatment. Fresh tumour biopsies were obtained from selected patients during the dose escalation stage and from all patients in the expansion cohorts, at baseline and during cycle 1.
(§2) Drug-mediated inhibition of mTORC1 and mTORC2 signalling by OSI-027 was assessed by measuring inhibition of their effectors p4EBP1 (Thr37/46) and pPRAS40 (Thr246), respectively, in PBMC. In addition, paired tumour biopsies at screening and during first month of therapy were used to study target modulation.
In 21 cases, pre- and postdose paired tumour biopsies were amenable for PD studies.

[3] = tested on: p4EBP1 (Thr37/46) in PBMC; assay: Pharmacodynamics in PBMC: p4EBP1 (Thr37/46), mTORC1 effector; assay type: in vivo, human
Experimental: as §1, §2

pPRAS40 (Thr246) in PBMC = assay: Pharmacodynamics in PBMC: pPRAS40 (Thr246), mTORC2 effector; assay type: in vivo, human
Experimental: as §1, §2

tumour xenograft models = tested on: tumour xenograft models; parameters: method as in Bhagwat et al, 2011; Falcon et al, 2011; conditions: ref Bhagwat et al, 2011, Falcon et al; cited from earlier work
[4] = 4 h after dosing, doses over 30 mg, almost universal
[5] = S1, 90 mg, during the 3 days on treatment
[6] = S1, 160 mg, during the 4-days off treatment, most patients

## COc1cccc2cc(-c3nc([C@H]4CC[C@H](C(=O)O)CC4)n4ncnc(N)c34)[nH]c12 [OSI-027]
[1]
  preclinical toxicology findings: signs of immunosuppression, renal function impairment, glucose metabolism abnormalities as well as potential for cardiac and ocular toxicities at high doses
[2]
  maximum tolerated dose (MTD) in toxicology studies: 20 mg kg^−1 per day
pS6 in tumour biopsies; 90 mg
  average reduction in pS6 expression (IHC): 28.6%
pS6 in tumour biopsies; 120 mg
  average reduction in pS6 (IHC): 75.3%
[3]; [4]
  inhibition of p4EBP1 in PBMC: Over 50%
[3]; [5]
  inhibition of p4EBP1 in PBMC: Over 50%
[3]; [6]
  target inhibition (p4EBP1) in PBMC: Over 50%
pPRAS40 (Thr246) in PBMC; [4]
  inhibition of pPRAS40 in PBMC: Over 50%
pPRAS40 (Thr246) in PBMC; [5]
  inhibition of pPRAS40 in PBMC: Over 50%
pPRAS40 (Thr246) in PBMC; [6]
  target inhibition (pPRAS40) in PBMC: Over 50%
Tumour xenograft models
  anti tumour activity in tumour xenograft models: anti tumour activity was documented
